# Patent US5780054A, “Methods for increasing the circulation half-life of protein-based therapeutics” (University of British Columbia, priority 1996, dated 1998)
# Tests used:
# [1] = system: RES; conditions: in vivo; cited from earlier work
# [2] = mouse, in vivo; cited from earlier work
# [3] = system: anti-ovalbumin IgG; assay: ELISA of plasma anti-ovalbumin IgG after 3 weekly i.v. injections (FIG. 3); format: in vivo, mouse (C3H/HeJ)
# Method: Groups of four C3H/HeJ mice per experimental point were given the specified treatment as a single i.v. dose via a lateral tail vein. The injection, given in a volume of 200 μL, contained 50 μg of ovalbumin. In animals receiving control (protein free) liposomes, the dose was chosen based on the lipid dose given for the ovalbumin-coated liposome group. This lipid dose was approximately 45 mg/kg. In the groups receiving doxorubicin, the drug dose was approximately 8 mg/kg.
# Microtitre plates (Flow Laboratories) were coated with 50 μL of 40 μg/mL ovalbumin and incubated at 4° C. overnight. The plates were washed twice (phosphate buffered saline containing 0.1% (vol/vol) TWEEN® 20) and then blocked with 2% bovine serum albumin (BSA) for 1 hour at 37° C. The plates were rinsed prior to addition of mouse plasma in a final volume of 100 μL (the extent to which the plasma was diluted depended on treatment group). […] Plates were incubated at room temperature for 30 min, washed, and the amount of plate associated β-galactosidase was determined. […] The amount of chlorophenol red produced was determined by measuring absorbance at 570 nm on a […] ® plate reader. Antibody levels were estimated on the basis of standard curves consisting of known quantities of a rabbit polyclonal anti-ovalbumin IgG (Cortex Biochemicals, Calif., USA). […]
Substance,circulation lifetimes for the liposomal carrier [1],liposome accumulation in the liver [1],spleen and bone marrow cellularity [1],maximum tolerated dose [2],anti-ovalbumin IgG level [3]
liposomal doxorubicin,significant increases,significant decreases,extended suppression,greater than 60 mg doxorubicin/kg,
free ovalbumin: IMJECT® (ovalbumin) obtained from Pierce,,,,,2.1 μg/mL plasma
